Test results published in paper PMC12833874 (Journal of Medicinal Chemistry, 2025).
Read-outs that look alike come from different tables or passages of the source.

How the values were obtained:
[1] = biological target: T1, SNAP-NOPr (Homo sapiens, UniProt P41146); experiment: Confocal imaging of fluorescent ligand binding, live FlpIn CHO cells stably expressing SNAP-NOPr; type: cell-based; details: for fluorescent ligand binding (confocal images): 1 μM, 30 min at 37 °C, live cells
T1 construct: expressed in transfected cells
Description: To first assess whether the library of fluorescent ligands (13a-h and 14h) can specifically label the NOPr, single time point confocal images of live FlpIn CHO cells stably expressing SNAP-NOPr were captured. Cells were incubated with fluorescent ligands 13a-h and 14h (1 μM) to assess the fluorescent ligand binding.
3 Single time point confocal images of live FlpIn CHO cells stably expressing SNAP-NOPr. Cells were labeled with SNAP-AF488 (cyan) to visualize SNAP-NOPr expression (a–d) and incubated for 30 min at 37 °C with fluorescent ligands 13e–h (1 μM) (magenta) to visualize fluorescent ligand binding (e-h).
For all experiments, live cell single time point confocal images were captured using a Zeiss Cell Discoverer 7 LSM 900 high-content automated confocal microscope. Two images per well were captured using a 10× objective and the Cy5 channel (650 λex, 673 λem), the AF488 (495λex, 520 λem) channel, and the CFP (433λex, 475 λem) channel. All cells were imaged in an imaging buffer containing (2 mM sodium pyruvate, 145 mM NaCl, 10 mM D-glucose, 5 mM KCl, 1 mM MgSO4·7H2O, 10 mM HEPES, 1.3 mM CaCl2 dihydrate, and 1.5 mM NaHCO3).
Stably expressing SNAP-NOPr FlpIn-CHO cells suspended in DMEM (D6421) (100 μL) were seeded (10,000 cells/well) into 96-well poly-D-lysine (PDL)-coated Greiner black polyester plates. Cells were incubated for 48 h at 37 °C and 5% CO2 prior to imaging.
Before measurement, the media were removed, and cells were washed with 90 μL of imaging buffer. Cells were then incubated with SNAP-AF488 (New England Biolabs) (0.5 μg·mL^–1) in imaging buffer for 30 min at 37 °C. After incubation, the SNAP-AF488 solution was aspirated and cells were rinsed twice with imaging buffer (90 μL). […] Cells were incubated for 30 min at 37 °C and 5% CO2 before the images were captured.

[2] = biological target: T2, NOPr (Homo sapiens, UniProt P41146); experiment: BRET G-protein activation (GPA) assay, Gαi2, agonist and antagonist mode, Flp-In-NOPr-CHO cells; type: cell-based; details: for reduction in inhibitory potency from N-Boc congener to fluorescent ligand: 11g to 13g, 11h to 13h and 14h
Description: The functional activity of congeners 11a-h was assessed in a bioluminescence resonance energy transfer (BRET) assay measuring NOPr activation of the Gαi2 G protein through release of Gβγ subunits in Flp-In-NOPr-Chinese hamster ovary (CHO) cells, as summarized in Figure a.
Data represent the mean ± SEM of n = 4 experiments performed in duplicate. (a) Illustrative representation of the GPA assayligand-induced receptor activation causes G protein dissociation, releasing a Venus-tagged Gβγ (acceptor) to interact with a membrane-localized c-terminus of G protein-coupled receptor kinase 3 (masGRK3ct) fused to a renilla luciferase enzyme (RLuc8) (donor). […] After a 10 min incubation with the R-Luc substrate coelenterazine and NOPr ligands, luminescence was measured to quantify GPA as a BRET ratio between acceptor λem 535 nm/donor λem 475 nm.
Flp-In CHO cells stably expressing SNAP-NOPr were transiently transfected with Gαi2 (2 μg), Gβ1-Venus (156–259)­(1 μg), Gγ2-Venus­(1–155)­(1 μg), and masGRK3ct-RLuc8 (1 μg) using polyethylenimine (PEI) in a 1:6 DNA/PEI ratio. The mixture was suspended in sterile NaCl, vortexed, and then incubated (10 min, RT), before being added to the cells in fresh antibiotic media DMEM (7 mL) supplemented with 10% FBS (v/v) and penicillin (50 units·mL^–1)- streptomycin (50 μg.mL^–1).
Cells were then incubated with coelenterazine H (NanoLight Technology) (10 μL/well, 50 μM, 5 min, RT) before ligands were added to the 96-well plate with final ligand concentrations ranging from (10 μM-0.01 nM). […] Cells were incubated in the plate reader, and luminescence was read using dual emission detection at 475 nm (Rluc8 Donor) and 535 nm emission (BRET signal) at 10 and 30 min. Plates were read on a PHERAstar (BMG Lab Tech), and data were exported through MARS and analyzed using Prism (GraphPad, Version 10).

[3] = biological target: T2, NOPr; experiment: TR-FRET equilibrium saturation binding, Lumi4Tb-SNAP-NOPr CHO membranes
Description: The levels of specific binding (total – nonspecific) were calculated and used to determine the dissociation constant (K D) as a measure of affinity.
For 13g-h, the homogeneous TR-FRET (HTRF) ratio [(acceptor λem (665 nM)/donor λem (620 nM) × 10000)] is plotted against ligand concentration (nM) for the total binding (solid circle) and nonspecific binding (NSB) (hollow circle). […] For end point saturation binding assays, data represent the mean ± SEM of n = 3 experiments performed in duplicate, and for kinetic binding studies, all data represent the mean of n = 3 experiments.
All ligands were prepared in TR-FRET buffer, consisting of Hanks’ Balanced Salt Solution (Sigma-Aldrich H6648) (KCl 5 mM, KH2PO4 0.4 mM, NaHCO3 4 mM, NaCl 137 mM, Na2HPO4 0.3 mM), Pluronic-F127 (0.02% w/v), DMSO (1% v/v), and glucose (1 mg.mL^–1), adjusted to pH 7.4. Membrane aliquots were thawed on ice prior to use, and membrane suspensions [membrane (0.05 μg.μL^–1), Gpp­(NH)p (100 μM), and saponin (50 μg.mL^–1)] were prepared in TR-FRET buffer. To ensure homogeneity, the membrane suspension was passed through a 27-gauge needle before use. Measurements were made in low-binding 384-well optiplates (PerkinElmer) on a PHERAstar (BMG Labtech) plate reader using the HTRF module [337 nm excitation with dual emission detection at 620 nm (terbium cryptate donor) and 665 nm emission (fluorescent ligand acceptor)] at a focal height of 11.4 mm. Integration was started 60 μs post irradiation (4 flashes/well) for 400 μs, all saturation and competition binding experiments were carried out in duplicate wells, and data were reported as the mean HTRF ratio ((acceptoremission/donoremission)×10,000) from 3 repeat measurements ±SEM.
Membrane solution (20 μL) was added, and the measurement was taken after a 2 h incubation at 37 °C. All data were converted to specific binding (total – nonspecific) and fitted using eq to determine K D. 2 HTRFratio×10,000=Bmax[FL]/(KD+[FL])

[4] = antagonist mode, inhibition of EC80 concentration of N/OFQ, n = 4 in duplicate, read-out: IC50 (converted)
[5] = antagonist mode, inhibition of EC80 concentration of N/OFQ, n = 4 in duplicate, read-out: pIC50 ± SEM (converted)
[6] = supplementary csv, GPA assay antagonist mode, read-out: NOP IC50 (converted)
[7] = IC50, antagonist mode, inhibition of EC80 concentration of N/OFQ, n = 4 in duplicate
[8] = NOP IC50 (nM), supplementary csv, GPA assay antagonist mode
[9] = NOP pIC50 ± SEM, supplementary csv, GPA assay antagonist mode
[10] = pIC50 ± SEM, antagonist mode, inhibition of EC80 concentration of N/OFQ, n = 4 in duplicate
[11] = supplementary csv, GPA assay antagonist mode, read-out: NOP pIC50 ± SEM (converted)

T2 sequence (P41146 whole entry): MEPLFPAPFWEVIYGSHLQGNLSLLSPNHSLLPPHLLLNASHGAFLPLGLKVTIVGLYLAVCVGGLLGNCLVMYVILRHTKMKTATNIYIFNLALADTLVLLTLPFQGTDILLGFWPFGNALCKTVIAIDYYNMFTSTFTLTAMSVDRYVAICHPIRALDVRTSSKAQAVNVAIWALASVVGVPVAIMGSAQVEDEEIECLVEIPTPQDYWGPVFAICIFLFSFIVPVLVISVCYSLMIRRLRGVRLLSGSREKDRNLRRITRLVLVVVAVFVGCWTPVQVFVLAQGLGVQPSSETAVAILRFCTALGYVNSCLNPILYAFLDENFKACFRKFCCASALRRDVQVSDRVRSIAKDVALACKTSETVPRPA
T1 sequence (P41146 whole entry): as above

| Compound | IC50 [2, 4] [nM] | IC50 [2, 5] [nM] | IC50 [2, 6] [nM] | IC50 [2, 7] [nM] | IC50 [2, 9] [nM] | IC50 [2, 10] [nM] | IC50 [2, 11] [nM] | other results |
| --- | --- | --- | --- | --- | --- | --- | --- | --- |
| O=C(CCCCCNC(=O)COc1ccc(/C=C/C2=[N+]3C(=Cc4ccc(-c5cccs5)n4[B-]3(F)F)C=C2)cc1)NCCOc1ccc(CN2CCC[C@@H]2C(=O)NCCCN2CCC3(CC2)OCc2ccccc23)cc1 [14h, (R,E)-N-(3-(3H-Spiro[isobenzofuran-1,4′-piperidin]-1′-yl)propyl)-1-(4-(2-(6-(2-(4-(2-(5,5-Difluoro-7-(thiophen-2-yl)-5H-4λ^4,5λ^4-dipyrrolo[1,2-c:2′,1′-f][1,3,2]diazaborinin-3-yl)vinyl)phenoxy)acetamido)hexanamido)ethoxy)benzyl)pyrrolidine-2-carboxamide] | 130 | 126 | 126 |  |  |  |  | specificity of labeling: displacement by SB-612111 / nonspecific labeling ([1]; 1 μM ligand, SB-612111 1 μM): significant nonspecific labeling; reduction in inhibitory potency from N-Boc congener to fluorescent ligand [2]: ≥ 20 fold; functional agonism at the NOPr ([2]; agonist mode, absence of N/OFQ): no functional agonism |
| CC(C)(C)OC(=O)NCCC(=O)N1CCC[C@@H]1C(=O)NCCCN1CCC2(CC1)OCc1ccccc12 [11b, tert-Butyl (R)-(3-(2-((3-(3H-Spiro[isobenzofuran-1,4′-piperidin]-1′-yl)propyl)carbamoyl)pyrrolidin-1-yl)-3-oxopropyl)carbamate] |  |  |  | 7800 | 7760 | 7940 |  | IC50 [2, 8]: 7760 nM |
| C[C@H](NC(=O)OC(C)(C)C)C(=O)N1CCC[C@@H]1C(=O)NCCCN1CCC2(CC1)OCc1ccccc12 [11a, tert-Butyl ((S)-1-((R)-2-((3-(3H-Spiro[isobenzofuran-1,4′-piperidin]-1′-yl)propyl)carbamoyl)pyrrolidin-1-yl)-1-oxopropan-2-yl)carbamate] |  |  |  | 11700 | 11700 | 12600 |  |  |
| CN1/C(=C/C=C/C=C/C2=[N+](CCCCCC(=O)NCCOc3cccc(C(=O)N4CCC[C@@H]4C(=O)NCCCN4CCC5(CC4)OCc4ccccc45)c3)c3ccc(S(=O)(=O)[O-])cc3C2(C)C)C(C)(C)c2cc(S(=O)(=O)[O-])ccc21.[K+] [13e, Potassium 1-(6-((2-(3-((R)-2-((3-(3H-Spiro[isobenzofuran-1,4′-piperidin]-1′-yl)propyl)carbamoyl)pyrrolidine-1-carbonyl)phenoxy)ethyl)amino)-6-oxohexyl)-3,3-dimethyl-2-((1E,3E)-5-((E)-1,3,3-trimethyl-5-sulfonatoindolin-2-ylidene)penta-1,3-dien-1-yl)-3H-indol-1-ium-5-sulfonate] |  |  |  |  |  |  |  | fluorescent ligand binding (confocal images) [1]: Binding was observed |
| CC(C)(C)OC(=O)NCCOc1ccc(C(=O)N2CCC[C@@H]2C(=O)NCCCN2CCC3(CC2)OCc2ccccc23)cc1 [11f, tert-Butyl (R)-(2-(4-(2-((3-(3H-Spiro[isobenzofuran-1,4′-piperidin]-1′-yl)propyl)carbamoyl)pyrrolidine-1-carbonyl)phenoxy)ethyl)carbamate] | 270 | 251 | 269 |  |  |  | 269 |  |
| CC(C)(C)OC(=O)NCCOc1cccc(C(=O)N2CCC[C@@H]2C(=O)NCCCN2CCC3(CC2)OCc2ccccc23)c1 [11e, tert-Butyl (R)-(2-(3-(2-((3-(3H-Spiro[isobenzofuran-1,4′-piperidin]-1′-yl)propyl)carbamoyl)pyrrolidine-1-carbonyl)phenoxy)ethyl)carbamate] | 370 | 398 | 372 |  |  |  | 372 |  |
| CC(C)(C)OC(=O)NCCOc1cccc(CN2CCC[C@@H]2C(=O)NCCCN2CCC3(CC2)OCc2ccccc23)c1 [11g, tert-Butyl (R)-(2-(3-((2-((3-(3H-Spiro[isobenzofuran-1,4′-piperidin]-1′-yl)propyl)carbamoyl)pyrrolidin-1-yl)methyl)phenoxy)ethyl)carbamate] |  |  |  | 20 | 19.5 | 20 |  | IC50 [2, 8]: 19.5 nM |
| CC(C)(C)OC(=O)NCCCCC(=O)N1CCC[C@@H]1C(=O)NCCCN1CCC2(CC1)OCc1ccccc12 [11d, tert-Butyl (R)-(5-(2-((3-(3H-Spiro[isobenzofuran-1,4′-piperidin]-1′-yl)propyl)carbamoyl)pyrrolidin-1-yl)-5-oxopentyl)carbamate] | 1200 | 1260 | 1230 |  |  |  | 1230 |  |
| CN1/C(=C/C=C/C=C/C2=[N+](CCCCCC(=O)NCCOc3ccc(CN4CCC[C@@H]4C(=O)NCCCN4CCC5(CC4)OCc4ccccc45)cc3)c3ccc(S(=O)(=O)[O-])cc3C2(C)C)C(C)(C)c2cc(S(=O)(=O)[O-])ccc21.[K+] [13h, Potassium 1-(6-((2-(4-(((R)-2-((3-(3H-Spiro[isobenzofuran-1,4′-piperidin]-1′-yl)propyl)carbamoyl)pyrrolidin-1-yl)methyl)phenoxy)ethyl)amino)-6-oxohexyl)-3,3-dimethyl-2-((1E,3E)-5-((E)-1,3,3-trimethyl-5-sulfonatoindolin-2-ylidene)penta-1,3-dien-1-yl)-3H-indol-1-ium-5-sulfonate] |  |  |  |  |  |  |  | binding behaviour at the highest concentration tested ([3]; 400 nM): saturable binding with minimal nonspecific binding; higher affinity of 13h than 13g ([3]; saturation KD): 5 fold; fluorescent ligand binding (confocal images) [1]: more pronounced binding; reduction in inhibitory potency from N-Boc congener to fluorescent ligand [2]: ≥ 20 fold |
| CC(C)(C)OC(=O)NCCOc1ccc(CN2CCC[C@@H]2C(=O)NCCCN2CCC3(CC2)OCc2ccccc23)cc1 [11h, tert-Butyl (R)-(2-(4-((2-((3-(3H-Spiro[isobenzofuran-1,4′-piperidin]-1′-yl)propyl)carbamoyl)pyrrolidin-1-yl)methyl)phenoxy)ethyl)carbamate] |  |  |  | 5.5 | 5.5 | 5.01 |  |  |
| CN1/C(=C/C=C/C=C/C2=[N+](CCCCCC(=O)NCCOc3ccc(C(=O)N4CCC[C@@H]4C(=O)NCCCN4CCC5(CC4)OCc4ccccc45)cc3)c3ccc(S(=O)(=O)[O-])cc3C2(C)C)C(C)(C)c2cc(S(=O)(=O)[O-])ccc21.[K+] [13f, Potassium 1-(6-((2-(4-((R)-2-((3-(3H-Spiro[isobenzofuran-1,4′-piperidin]-1′-yl)propyl)carbamoyl)pyrrolidine-1-carbonyl)phenoxy)ethyl)amino)-6-oxohexyl)-3,3-dimethyl-2-((1E,3E)-5-((E)-1,3,3-trimethyl-5-sulfonatoindolin-2-ylidene)penta-1,3-dien-1-yl)-3H-indol-1-ium-5-sulfonate] |  |  |  |  |  |  |  | fluorescent ligand binding (confocal images) [1]: Binding was observed |
| CC(C)(C)OC(=O)NCCCC(=O)N1CCC[C@@H]1C(=O)NCCCN1CCC2(CC1)OCc1ccccc12 [11c, tert-Butyl (R)-(4-(2-((3-(3H-Spiro[isobenzofuran-1,4′-piperidin]-1′-yl)propyl)carbamoyl)pyrrolidin-1-yl)-4-oxobutyl)carbamate] | 4900 | 5010 |  |  |  |  | 4900 |  |
